# Data published in ChEMBL document CHEMBL3616395, “Discovery of 4-arylamido 3-methyl isoxazole derivatives as novel FMS kinase inhibitors” (Eur J Med Chem, 2015).
# Calls of active or inactive are those of the source. No cut-off for these calls is given here.
# How the values were obtained:
# [1] = Cytotoxicity against human HS27 cells after 24 hrs by MTT assay; type: cell-based
# [2] = system: A375P; assay: Antiproliferative activity against human A375P cells after 24 hrs by MTT assay; type: functional, cell-based
# [3] = system: U-937; assay: Antiproliferative activity against human U937 cells after 24 hrs by MTT assay; type: functional; details: U-937, 24 h
# [4] = target: Serine/threonine-protein kinase mTOR (Homo sapiens, UniProt P42345); assay: Inhibition of mTOR (unknown origin) after 40 mins by scintillation counting analysis
SMILES,GI50 [3] [µM],IC50 [4] [µM],GI50 at 24 h [1] [µM],Activity [2]
Cc1ccc(NC(=O)c2cc(-n3ccnc3C)cc(C(F)(F)F)c2)cc1NC(=O)c1cnoc1C,0.019,–,> 30,inactive
CCCS(=O)(=O)Nc1ccc(NC(=O)c2cnoc2C)c(C)c1,> 30,–,> 30,inactive
Cc1ccc(NC(=O)c2ccc(-c3ccccc3)cc2)cc1NC(=O)c1cnoc1C,> 30,–,> 30,inactive
Cc1cc(NC(=O)c2cc(N3CCN(C)CC3)cc(C(F)(F)F)c2)ccc1NC(=O)c1cnoc1C,> 30,–,> 30,inactive
CNC(=O)c1cc(Oc2ccc(NC(=O)Nc3ccc(Cl)c(C(F)(F)F)c3)cc2)ccn1 [SORAFENIB],–,–,> 30,inactive
Cc1ccc(NC(=O)Cc2ccccc2F)cc1NC(=O)c1cnoc1C,> 30,–,> 30,inactive
Cc1ccc(NC(=O)Cc2ccc(-c3ccccc3)cc2)cc1NC(=O)c1cnoc1C,> 30,–,> 30,inactive
Cc1cc(C)cc(C(=O)Nc2ccc(C)c(NC(=O)c3cnoc3C)c2)c1,3.1,–,> 30,inactive
Cc1ccc(NC(=O)c2ccc(N3CCOCC3)c(C(F)(F)F)c2)cc1NC(=O)c1cnoc1C,0.465,–,> 30,inactive
Cc1cc(NC(=O)Nc2cccc(C(F)(F)F)c2)ccc1NC(=O)c1cnoc1C,> 30,–,> 30,inactive
Cc1ccc(NC(=O)c2cc(-n3cncc3C)cc(C(F)(F)F)c2)cc1NC(=O)c1cnoc1C,0.026,–,> 30,inactive

# Continued, in another order:
GI50 [3] [µM],IC50 [4] [µM],SMILES,GI50 at 24 h [1] [µM],Activity [2]
> 30,–,Cc1cc(NC(=O)Nc2ccccc2F)ccc1NC(=O)c1cnoc1C,> 30,inactive
> 30,–,Cc1ccc(NC(=O)Nc2ccc(Cl)cc2)cc1NC(=O)c1cnoc1C,> 30,inactive
> 30,–,Cc1ccc(NC(=O)c2ccc(Cl)c(C(F)(F)F)c2)cc1NC(=O)c1cnoc1C,> 30,inactive
–,9.9,O=c1cc(N2CCOCC2)oc2c(-c3ccccc3)cccc12 [LY-294002],–,–
> 30,–,Cc1ccc(NC(=O)Nc2cc(Cl)cc(Cl)c2)cc1NC(=O)c1cnoc1C,> 30,inactive
> 30,–,Cc1ccc(NC(=O)Nc2cccc(Cl)c2)cc1NC(=O)c1cnoc1C,> 30,inactive
